Assay: Pharmacokinetic test in SD rats
Type: in vivo
Details: rats; for AUC(0-inf) / AUC(0-t) / Cmax / MRT last: 10 mg/kg; for Plasma concentration: 10 mg/kg p.o.
Procedure: Experimental animals: healthy adult SD rats, male, 6 in total, divided into two groups, with 3 rats per group, aged 6-8 weeks; and body weight approximately 200-300 g. The rats were fed in rat cages, and fasted (for at least 10 hours) with free access to water one day before the experiment. On the day of experiment, the rats were weighed and marked at the tail respectively. Blank blood samples were collected respectively before drug administration. The blood samples were collected via the tail vein. Drug administration method: intragastric gavage (p.o.): intragastric gavage with drug suspension; preparation of drug suspension: approximately 10 mg of test sample was accurately weighed, dissolved in 5% DMSO (calculated proportion), and vortexed with 10% solutol HS-15 and 85% saline to obtain a suspension with a concentration of 1.0 mg/mL; and the suspension was freshly prepared before use.
Sample collection: the rats were administered a single oral dose of 10mg/kg via intragastric gavage (p.o.). Timing was started immediately after the administration was completed, and blood samples were collected at 0.5, 1, 2, 4, 6, 8, 12 and 24 hours after administration. A volume of 0.1mL of whole blood was collected into EDTA-Na2 anticoagulant tubes, mixed by inverting 3-4 times, centrifuged at 10000 g for 5 minutes at 4°C to separate the plasma, and then the plasma was stored at -80 °C until testing. The blood samples were collected via the tail vein.
Sample preparation: 1) the samples were thawed, and 15 µL of unknown plasma samples before or after administration, standard series solutions, and single blank and double blank samples were respectively transferred into 1.5 mL centrifuge tubes. 2) 15 µL of protein precipitant (methanol) and 400 µL of internal standard solution (verapamil in methanol, approximately 10 ng/mL) were added to each sample sequentially, vortexed for 2 minutes, and then centrifuged at 4°C and 12000 rpm for 10 minutes. 3) The supernatant was collected for LC-MS/MS detection.
Analytical conditions: liquid chromatography conditions: liquid chromatography system: Shimadzu Nexera X2; chromatographic column: Agilent ZORBAX XDB-C18 3.5 (2.1 × 50 mm); column temperature: 35°C; mobile phase: A-5% acetonitrile (0.1% formic acid in water), B-95% acetonitrile (0.1% formic acid in water); injection volume: 3 µL; and
flow rate: 0.5 mL/min. Gradient elution was employed, and an elution program can be seen in the table below.
Mass spectrometry conditions: mass spectrometric analysis was carried out using an electrospray ionization (ESI) source in a positive ion mode with multiple reaction monitoring (MRM). The mass spectrometer ion source parameters and compound detection parameters can be seen in the table below.
PK parameter processing: pharmacokinetic (PK) parameters were calculated according to a plasma concentration from individual plasma concentration and corresponding sampling time data using Phoenix WinNonlin software with a non-compartmental model. (1) The PK parameters used for pharmacokinetic evaluation included: Cmax, AUC0-t, AUC0-∞, Tmax and t1/2.
(2) The parameters used for bioequivalence evaluation: Cmax, AUC0-t and AUC0-∞ were used for the bioequivalence evaluation.
Cmax: maximum plasma concentration measured within specified period, presented as measured value.
Tmax: time measured to reach maximum plasma concentration, presented as measured value. If the maximum value occurred at more than one time point, Tmax was defined as the first time point at which this value was observed.
AUC0-t: area under plasma concentration-time curve from 0 to last time point t.
AUC0-∞: area under plasma concentration-time curve from 0 to infinity. Ct was the last measured concentration, and λz was the terminal elimination rate constant. AUC0−∞ = AUC0−t + (Ct)/(λz)AUC0−∞ = AUC0−t + (Ct)/(λz) [formula]
t1/2: elimination or terminal half-life, estimated by ln2/λz.

[1] = rat, in vivo, po, intragastric gavage 10 mg/kg, Mean
[2] = rat, in vivo, po, intragastric gavage 10 mg/kg, No. 1
[3] = rat, in vivo, po, intragastric gavage 10 mg/kg, No. 2
[4] = rat, in vivo, po, intragastric gavage 10 mg/kg, No. 3

With `C[C@@H](Nc1ccn2ncc(C3=NOC(C)(C)N3)c2n1)c1cc(F)cc(F)c1F` [crystal form A] the AUC(0-inf) [1] was 4800 ng·h/mL, the AUC(0-t) [1] was 4730 ng·h/mL and the Cmax [1] was 578 ng/mL. The MRT last [1] was 6.09 h, the AUC(0-inf) [2] was 4390 ng·h/mL and the AUC(0-t) [2] was 4320 ng·h/mL. For the same compound, the Cmax [2] was 652 ng/mL, the MRT last [2] was 6.09 h and the AUC(0-inf) [3] was 3580 ng·h/mL. The AUC(0-t) [3] was 3550 ng·h/mL, the Cmax [3] was 459 ng/mL and the MRT last [3] was 5.52 h. It also gave an AUC(0-inf) [4] of 6440 ng·h/mL, an AUC(0-t) [4] of 6330 ng·h/mL and a Cmax [4] of 623 ng/mL. The MRT last [4] was 6.66 h, the Tmax [2] was 4 h and the Plasma concentration (0.5 h, Mean) was 224 ng/mL. It also gave a Plasma concentration (0.5 h, No. 1) of 220 ng/mL, a Plasma concentration (0.5 h, No. 2) of 168 ng/mL and a Plasma concentration (0.5 h, No. 3) of 285 ng/mL. It also gave a Plasma concentration (1 h, Mean) of 300 ng/mL, a Plasma concentration (1 h, No. 1) of 170 ng/mL and a Plasma concentration (1 h, No. 2) of 257 ng/mL. For the same compound, the Plasma concentration (1 h, No. 3) was 474 ng/mL, the Plasma concentration (2 h, Mean) was 457 ng/mL and the Plasma concentration (2 h, No. 1) was 448 ng/mL. It also gave a Plasma concentration (2 h, No. 2) of 453 ng/mL, a Plasma concentration (2 h, No. 3) of 470 ng/mL and a Plasma concentration (4 h, Mean) of 578 ng/mL. It also gave a Plasma concentration (4 h, No. 1) of 652 ng/mL, a Plasma concentration (4 h, No. 2) of 459 ng/mL and a Plasma concentration (4 h, No. 3) of 623 ng/mL. For the same compound, the Plasma concentration (6 h, Mean) was 395 ng/mL, the Plasma concentration (6 h, No. 1) was 307 ng/mL and the Plasma concentration (6 h, No. 2) was 277 ng/mL. For the same compound, the Plasma concentration (6 h, No. 3) was 602 ng/mL, the Plasma concentration (8 h, Mean) was 312 ng/mL and the Plasma concentration (8 h, No. 1) was 240 ng/mL. The Plasma concentration (8 h, No. 2) was 238 ng/mL, the Plasma concentration (8 h, No. 3) was 459 ng/mL and the Plasma concentration (12 h, Mean) was 93.8 ng/mL. It also gave a Plasma concentration (12 h, No. 1) of 88.3 ng/mL, a Plasma concentration (12 h, No. 2) of 47.2 ng/mL and a Plasma concentration (12 h, No. 3) of 146 ng/mL. It also gave a Plasma concentration (24 h, Mean) of 12.7 ng/mL, a Plasma concentration (24 h, No. 1) of 11.6 ng/mL and a Plasma concentration (24 h, No. 2) of 5.25 ng/mL. The Plasma concentration (24 h, No. 3) was 21.3 ng/mL, the HL_ (intragastric gavage 10 mg/kg, Mean) was 3.51 h and the HL_ (intragastric gavage 10 mg/kg, No. 1) was 3.76 h. It also gave an HL_ (intragastric gavage 10 mg/kg, No. 2) of 3.07 h and an HL_ (intragastric gavage 10 mg/kg, No. 3) of 3.70 h.

From patent EP4813989A1, “CRYSTAL, PHARMACEUTICAL COMPOSITION, PREPARATION METHOD THEREFOR, AND USE THEREOF” (TYK Medicines, Inc., priority 2023, dated 2025)
